Some test systems named below: MDA-MB-231 breast; HT29 colon; NCI-H226 lung; SK-MEL-5 melanoma; HCT-15 colon; NCI-H460 lung; HOP-62 NSCLC; MDA-MB-435; RPMI-8226 leukemia; T-47D breast.
Common to all, as to assay: growth of human tumour cells (NCI), 48 h

Molecules are shown by their SMILES.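 Cultured in 96-well plates, cells were exposed to test compound for 48 hours across five concentrations. Abbreviation: GI50, concentration required for 50% inhibition of growth. TGI denotes the concentration required for complete inhibition of growth.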

In the case of `NC(N)=N/N=C/c1c(-c2cccs2)nc2sccn12`, the GI50 was 13.4 µM in the assay on MDA-MB-231 breast; 13.2 µM in the assay on HT29 colon; 13.2 µM in the assay on NCI-H226 lung; 13.6 µM with SK-MEL-5 melanoma; 15.4 µM in the assay on HCT-15 colon; 14.7 µM with NCI-H460 lung. The GI50 with HOP-62 NSCLC is 11.2 µM; with MDA-MB-435 it was 13.2 µM; in the assay with RPMI-8226 leukemia, 12.6 µM; in the assay on T-47D breast, 14.6 µM. Also, the TGI in the assay with MDA-MB-231 breast stood at 26.7 µM; in the assay on HT29 colon, 27.1 µM; in the assay on NCI-H226 lung, 26 µM; in the assay with SK-MEL-5 melanoma it was 26.5 µM; in the assay on HCT-15 colon, 28.8 µM; in the assay on NCI-H460 lung, 39.7 µM. In addition, the TGI in the assay with HOP-62 NSCLC was 23.3 µM; in the assay with MDA-MB-435 it was 25.9 µM; in the assay on RPMI-8226 leukemia, more than 100 µM; in the assay with T-47D breast it was 28.6 µM.
Consider `Nc1c(C(=O)c2cccc(-c3ccc[n+]([O-])c3)c2)cnn1-c1ccc(F)cc1F`, for which the GI50 in the assay with MDA-MB-231 breast, in the assay on HT29 colon, with NCI-H226 lung, in the assay on SK-MEL-5 melanoma, in the assay with HCT-15 colon and with NCI-H460 lung was more than 25 µM in each case. In addition, the GI50 with HOP-62 NSCLC is more than 25 µM; with MDA-MB-435, 15.2 µM; in the assay on RPMI-8226 leukemia it was more than 25 µM; with T-47D breast it was more than 25 µM. Further, the TGI in the assay with MDA-MB-231 breast, in the assay on HT29 colon, with NCI-H226 lung, with SK-MEL-5 melanoma, with HCT-15 colon and in the assay with NCI-H460 lung was more than 25 µM throughout. Besides, the TGI in the assay with HOP-62 NSCLC, in the assay on MDA-MB-435, in the assay on RPMI-8226 leukemia and in the assay with T-47D breast was more than 25 µM each time.
Take `OCc1cccc(-c2ccc3ncc(-c4nc(NC5CC5)ncc4F)n3c2)c1`: the GI50 was 0.286 µM in the assay with MDA-MB-231 breast; 0.329 µM in the assay with HT29 colon; 0.301 µM in the assay on NCI-H226 lung; 0.275 µM in the assay on SK-MEL-5 melanoma; 0.267 µM in the assay with HCT-15 colon; 0.249 µM in the assay with NCI-H460 lung. Moreover, the GI50 is 0.266 µM in the assay with HOP-62 NSCLC, 0.284 µM with MDA-MB-435, 0.22 µM in the assay on RPMI-8226 leukemia and 0.274 µM in the assay on T-47D breast. Moreover, the TGI was 1.04 µM in the assay with MDA-MB-231 breast; more than 100 µM with HT29 colon; 1.47 µM in the assay with NCI-H226 lung; 0.821 µM with SK-MEL-5 melanoma; 1.39 µM with HCT-15 colon; 0.825 µM in the assay on NCI-H460 lung. The TGI is 2.7 µM in the assay on HOP-62 NSCLC, 0.919 µM in the assay with MDA-MB-435, 0.788 µM with RPMI-8226 leukemia and 3.93 µM in the assay on T-47D breast.

These data come from PubChem BioAssay (NCI).
